From ChEMBL document CHEMBL1201862, “PubChem BioAssay data set” (2004) come the findings set out here.

Test systems include Hs-578T; T47D; MDA-MB-231; PC-3; BT-549; DMS-114; DLD-1; LXFL 529; RXF 631.
Experiment in all cases: DTP human tumour cell line panel, 48 h

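Assay format: 96-well plates, 48-hour exposure. Abbreviation: GI50, concentration required for 50% inhibition of growth.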 Activity calls are given as the source filed them. Cut-off read from the data, not from the text of the source: active = GI50 up to about 1.1 µM and inactive = higher. Where a SMILES comes first, the peptide text is derived from it. The star is where a group is joined. Boc = CC(C)(C)OC(=O)*

Turning to `CCc1c(O)c2c(c(O)c1C(C)=O)C(=O)c1c(cc(O)c(C(=O)O)c1C(=O)O)C2=O`, the GI50 in the assay on Hs-578T, with T47D, in the assay with MDA-MB-231, in the assay on PC-3 and with BT-549 was > 100 µM (inactive) throughout.
For the compound `Cc1nc2ccccc2c(=O)n1Nc1ccc(C(=O)O)cc1`, the GI50 in the assay on DMS-114 and in the assay with DLD-1 was > 100 µM (inactive) each time.
On to `c1ccc2c3c(ccc2c1)-c1[nH]ncc1CCO3`, for which the GI50 (commonly the concentration that inhibits growth by half) with DMS-114 was 32.7 µM (inactive); in the assay with DLD-1 it was 34.8 µM (inactive).
Turning to `NC(=O)c1c[se]c(C2OC(COP(=O)(O)CP(=O)(O)OCC3OC(n4cnc5c(N)ncnc54)C(O)C3O)C(O)C2O)n1` (centres undefined), the figures for the GI50 in the assay with DMS-114, in the assay with DLD-1 and with LXFL 529 were 97.5 µM (inactive), 55.5 µM (inactive) and 51.4 µM (inactive), respectively.
As for `COc1ccc(Cc2nn(C3OC(COC(C)=O)C(OC(C)=O)C(OC(C)=O)C3OC(C)=O)c(=S)n(-c3ccc(OC)cc3)c2=O)cc1` (centres undefined), in the assay on DLD-1, the GI50 was > 100 µM (inactive).
Take `Cc1ccc(S(=O)(=O)OC[C@@H]2CO2)cc1`: the results for the GI50 with DLD-1, in the assay on RXF 631 and in the assay on LXFL 529 were > 100 µM (inactive), 68.7 µM (inactive) and > 100 µM (inactive), respectively.
With `O=C(c1ccccc1)c1nc2ccc(Cl)cc2c2c1CCCO2`, the GI50 in the assay with DMS-114 and in the assay on LXFL 529 was > 100 µM (inactive) in each case.
For the compound `CCCN(CCC)c1cc2c(cc1F)c(=O)c(C(=O)O)cn2-c1ccc(N2CCN(C)CC2)cn1`, the GI50 was 17 µM (inactive) with Hs-578T; 17 µM (inactive) with T47D; 13.5 µM (inactive) with MDA-MB-231; 19 µM (inactive) in the assay on PC-3; 10.7 µM (inactive) in the assay with BT-549.
As to `Cc1c2cnccc2c(C)c2c1c1ccccc1n2CC1CO1` (centres undefined), the GI50 in the assay with DMS-114 is 0.82 µM (active); with DLD-1, 1.55 µM (inactive).
Turning to `CN1NC(c2ccc(Cl)cc2)=C(C#N)C(=O)CC1c1ccccc1` (centres undefined), the GI50 in the assay with DMS-114, in the assay on DLD-1, in the assay with RXF 631 and in the assay on LXFL 529 was > 100 µM (inactive) in each case.
For `O=C(Cc1nc2ccc(C(=O)c3ccccc3)cc2nc1O)C(=O)Nc1nc2ccccc2[nH]1`, the GI50 is 23.8 µM (inactive) in the assay with DMS-114, 65.5 µM (inactive) in the assay with RXF 631 and 45.2 µM (inactive) with LXFL 529.
Consider `CSc1nc2c(c(N3CCOCC3)n1)C(O)n1c(nc3ccccc31)S2` (centres undefined), for which the GI50 is 23.7 µM (inactive) in the assay with Hs-578T; 25.9 µM (inactive) in the assay on T47D; 50.2 µM (inactive) with MDA-MB-231; 37.2 µM (inactive) in the assay with PC-3; 30.5 µM (inactive) in the assay on BT-549.
The like results for `CC1C2CC(CC2O)C1(C)C` (centres undefined) were, in that order, > 100 µM (inactive), > 100 µM (inactive), > 100 µM (inactive), > 100 µM (inactive) and > 100 µM (inactive).
As to `CC(=O)NNc1nc(C)c(C(=O)NNC(=O)C(=O)Nc2ccccc2C#N)s1`, the GI50 in the assay with DMS-114, in the assay with DLD-1, in the assay on RXF 631 and in the assay on LXFL 529 was > 100 µM (inactive) in each case.
In the case of `CN1CCC(C(O)(c2ccccc2)c2ccc(Br)cc2)CC1` (centres undefined), the GI50 was 23.8 µM (inactive) in the assay on Hs-578T; 23 µM (inactive) in the assay with T47D; 14.7 µM (inactive) with MDA-MB-231; 22.2 µM (inactive) in the assay with PC-3; > 100 µM (inactive) with BT-549.
As to `CCOC(=O)C(Cc1ccc(N=NN(C)C)cc1)NC(=O)CC1c2ccccc2-c2ccccc21` (centres undefined), the GI50 was > 100 µM (inactive) in the assay on DMS-114, 48.1 µM (inactive) in the assay with DLD-1 and 50.5 µM (inactive) in the assay with LXFL 529.
With `COC(=O)c1cccc(N[C@@H]2c3cc4c(cc3C(c3cc(OC)c(O)c(OC)c3)[C@H]3C(=O)OCC32)OCO4)c1` (some centres undefined), the results for the GI50 in the assay on DMS-114 and in the assay with DLD-1 were 0.568 µM (active) and 1.89 µM (inactive), respectively.
Take `COc1cc(O)c2c(=O)cc(C3(O)C=CC(=O)C=C3)oc2c1`: the GI50 in the assay with Hs-578T is 0.968 µM (active); with T47D it was 0.378 µM (active); in the assay with MDA-MB-231, 0.327 µM (active); in the assay on PC-3, 0.131 µM (active); in the assay on BT-549, 0.363 µM (active).
Turning to `NC(C/C=C/P(=O)(O)O)C(=O)O` (centres undefined), the GI50 in the assay with Hs-578T, in the assay on T47D, in the assay with MDA-MB-231 and in the assay with PC-3 was > 100 µM (inactive) each time.
As for `COc1ccc(-c2cc(O)c3ccc(C)nc3n2)cc1`, the GI50 in the assay on Hs-578T was > 100 µM (inactive); with T47D, 96.8 µM (inactive); with MDA-MB-231, > 100 µM (inactive); with BT-549, > 100 µM (inactive).
Consider `Nc1nc(O)c2ncn(C3C=CC(CO)O3)c2n1` (centres undefined), for which the GI50 with Hs-578T, in the assay with T47D, in the assay with MDA-MB-231, in the assay on PC-3 and in the assay on BT-549 was > 100 µM (inactive) throughout.
As for `CC(C)[C@](O)(C(=O)OCC1=CCN2CC[C@@H](O)[C@@H]12)[C@H](C)O`, the GI50 was 368 µM (inactive) in the assay with DMS-114 and > 375 µM (inactive) with DLD-1.
On to `CC(C)(C)OC(=O)NC(Cc1ccccc1)C(=O)N1CCCC1C(N)=O` (stereo not drawn) (Boc-Phe-Pro-NH2; configuration not given here), for which the GI50 in the assay on T47D, in the assay with MDA-MB-231 and in the assay on PC-3 was > 100 µM (inactive) throughout.
